Test results taken from patent US6358885B1, “Substituted phenylheterocyclic herbicides” (Mississippi State University, priority 1992, dated 2002).

How the values were obtained:
Experiment in all cases: Test F preemergence/postemergence greenhouse plant response rating 0 to 100
speedwell = type: in vivo, Veronica persica; conditions: PREEMERGENCE, 0 to 100 scale
Method in brief: (§1)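 Visual injury ratings compared treated plants with untreated controls roughly 21 to 28 days after application. Test compounds, in a non-phytotoxic solvent, went onto the soil surface before emergence or onto one-to-four-leaf plants. Preemergence used sandy loam; postemergence used a 60:40 sandy loam and potting mix blend.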

ryegrass = type: in vivo, Lolium multiflorum; conditions: 0 to 100 scale
Method in brief: as §1

sugar beet = type: in vivo, Beta vulgaris cv. ‘USl’; conditions: 0 to 100 scale
Method in brief: as §1

spring wheat = type: in vivo, Triticum aestivum cv. ‘ERA’; conditions: 0 to 100 scale
Method in brief: as §1

winter wheat = type: in vivo, Triticum aestivum cv. ‘Talent’; conditions: 0 to 100 scale
Method in brief: as §1

wild mustard = type: in vivo, Sinapis arvensis; conditions: 0 to 100 scale
Method in brief: as §1

wild oat = type: in vivo, Avena fatua; conditions: 0 to 100 scale
Method in brief: as §1

wild radish = type: in vivo, Raphanus raphanistrum; conditions: 0 to 100 scale
Method in brief: as §1

SMILES: C#CCOc1cc(-c2nn3c(c2Br)CCCC3)c(F)cc1Cl [Compound 26]
- Persn Speedwell plant response rating (speedwell; Rate 8 g/ha): 80
- Persn Speedwell plant response rating (speedwell; Rate 16 g/ha): 100
- Persn Speedwell plant response rating (speedwell; Rate 32 g/ha): 100
- Persn Speedwell plant response rating (speedwell; Rate 64 g/ha): 100
- Persn Speedwell plant response rating (speedwell; Rate 125 g/ha): 100
- Persn Speedwell plant response rating (speedwell; Rate 250 g/ha): 100
- Ryegrass plant response rating (ryegrass; POSTEMERGENCE, Rate 4 g/ha): 0
- Ryegrass plant response rating (ryegrass; POSTEMERGENCE, Rate 8 g/ha): 0
- Ryegrass plant response rating (ryegrass; POSTEMERGENCE, Rate 16 g/ha): 0
- Ryegrass plant response rating (ryegrass; POSTEMERGENCE, Rate 32 g/ha): 5
- Ryegrass plant response rating (ryegrass; POSTEMERGENCE, Rate 64 g/ha): 20
- Ryegrass plant response rating (ryegrass; POSTEMERGENCE, Rate 125 g/ha): 30
- Ryegrass plant response rating (ryegrass; POSTEMERGENCE, Rate 250 g/ha): 55
- Ryegrass plant response rating (ryegrass; PREEMERGENCE, Rate 4 g/ha): 0
- Ryegrass plant response rating (ryegrass; PREEMERGENCE, Rate 8 g/ha): 0
- Ryegrass plant response rating (ryegrass; PREEMERGENCE, Rate 16 g/ha): 0
- Ryegrass plant response rating (ryegrass; PREEMERGENCE, Rate 32 g/ha): 20
- Ryegrass plant response rating (ryegrass; PREEMERGENCE, Rate 64 g/ha): 40
- Ryegrass plant response rating (ryegrass; PREEMERGENCE, Rate 125 g/ha): 60
- Ryegrass plant response rating (ryegrass; PREEMERGENCE, Rate 250 g/ha): 80
- Sugar beet plant response rating (sugar beet; POSTEMERGENCE, Rate 4 g/ha): 100
- Sugar beet plant response rating (sugar beet; POSTEMERGENCE, Rate 8 g/ha): 100
- Sugar beet plant response rating (sugar beet; POSTEMERGENCE, Rate 16 g/ha): 100
- Sugar beet plant response rating (sugar beet; POSTEMERGENCE, Rate 32 g/ha): 100
- Sugar beet plant response rating (sugar beet; POSTEMERGENCE, Rate 64 g/ha): 100
- Sugar beet plant response rating (sugar beet; POSTEMERGENCE, Rate 125 g/ha): 100
- Sugar beet plant response rating (sugar beet; POSTEMERGENCE, Rate 250 g/ha): 100
- Sugar beet plant response rating (sugar beet; PREEMERGENCE, Rate 4 g/ha): 0
- Sugar beet plant response rating (sugar beet; PREEMERGENCE, Rate 8 g/ha): 50
- Sugar beet plant response rating (sugar beet; PREEMERGENCE, Rate 16 g/ha): 60
- Sugar beet plant response rating (sugar beet; PREEMERGENCE, Rate 32 g/ha): 70
- Sugar beet plant response rating (sugar beet; PREEMERGENCE, Rate 64 g/ha): 100
- Sugar beet plant response rating (sugar beet; PREEMERGENCE, Rate 125 g/ha): 100
- Sugar beet plant response rating (sugar beet; PREEMERGENCE, Rate 250 g/ha): 100
- Wheat (Spring) plant response rating (spring wheat; POSTEMERGENCE, Rate 4 g/ha): 0
- Wheat (Spring) plant response rating (spring wheat; POSTEMERGENCE, Rate 8 g/ha): 0
- Wheat (Spring) plant response rating (spring wheat; POSTEMERGENCE, Rate 16 g/ha): 0
- Wheat (Spring) plant response rating (spring wheat; POSTEMERGENCE, Rate 32 g/ha): 15
- Wheat (Spring) plant response rating (spring wheat; POSTEMERGENCE, Rate 64 g/ha): 15
- Wheat (Spring) plant response rating (spring wheat; POSTEMERGENCE, Rate 125 g/ha): 15
- Wheat (Spring) plant response rating (spring wheat; POSTEMERGENCE, Rate 250 g/ha): 20
- Wheat (Spring) plant response rating (spring wheat; PREEMERGENCE, Rate 4 g/ha): 0
- Wheat (Spring) plant response rating (spring wheat; PREEMERGENCE, Rate 8 g/ha): 0
- Wheat (Spring) plant response rating (spring wheat; PREEMERGENCE, Rate 16 g/ha): 0
- Wheat (Spring) plant response rating (spring wheat; PREEMERGENCE, Rate 32 g/ha): 0
- Wheat (Spring) plant response rating (spring wheat; PREEMERGENCE, Rate 64 g/ha): 0
- Wheat (Spring) plant response rating (spring wheat; PREEMERGENCE, Rate 125 g/ha): 15
- Wheat (Spring) plant response rating (spring wheat; PREEMERGENCE, Rate 250 g/ha): 20
- Wheat (Winter) plant response rating (winter wheat; POSTEMERGENCE, Rate 4 g/ha): 0
- Wheat (Winter) plant response rating (winter wheat; POSTEMERGENCE, Rate 8 g/ha): 0
- Wheat (Winter) plant response rating (winter wheat; POSTEMERGENCE, Rate 16 g/ha): 0
- Wheat (Winter) plant response rating (winter wheat; POSTEMERGENCE, Rate 32 g/ha): 15
- Wheat (Winter) plant response rating (winter wheat; POSTEMERGENCE, Rate 64 g/ha): 20
- Wheat (Winter) plant response rating (winter wheat; POSTEMERGENCE, Rate 125 g/ha): 30
- Wheat (Winter) plant response rating (winter wheat; POSTEMERGENCE, Rate 250 g/ha): 20
- Wheat (Winter) plant response rating (winter wheat; PREEMERGENCE, Rate 4 g/ha): 0
- Wheat (Winter) plant response rating (winter wheat; PREEMERGENCE, Rate 8 g/ha): 0
- Wheat (Winter) plant response rating (winter wheat; PREEMERGENCE, Rate 16 g/ha): 0
- Wheat (Winter) plant response rating (winter wheat; PREEMERGENCE, Rate 32 g/ha): 0
- Wheat (Winter) plant response rating (winter wheat; PREEMERGENCE, Rate 64 g/ha): 0
- Wheat (Winter) plant response rating (winter wheat; PREEMERGENCE, Rate 125 g/ha): 10
- Wheat (Winter) plant response rating (winter wheat; PREEMERGENCE, Rate 250 g/ha): 20
- Wild mustard plant response rating (wild mustard; POSTEMERGENCE, Rate 4 g/ha): 70
- Wild mustard plant response rating (wild mustard; POSTEMERGENCE, Rate 8 g/ha): 70
- Wild mustard plant response rating (wild mustard; POSTEMERGENCE, Rate 16 g/ha): 100
- Wild mustard plant response rating (wild mustard; POSTEMERGENCE, Rate 32 g/ha): 100
- Wild mustard plant response rating (wild mustard; POSTEMERGENCE, Rate 64 g/ha): 100
- Wild mustard plant response rating (wild mustard; POSTEMERGENCE, Rate 125 g/ha): 100
- Wild mustard plant response rating (wild mustard; POSTEMERGENCE, Rate 250 g/ha): 100
- Wild mustard plant response rating (wild mustard; PREEMERGENCE, Rate 4 g/ha): 0
- Wild mustard plant response rating (wild mustard; PREEMERGENCE, Rate 8 g/ha): 0
- Wild mustard plant response rating (wild mustard; PREEMERGENCE, Rate 16 g/ha): 40
- Wild mustard plant response rating (wild mustard; PREEMERGENCE, Rate 32 g/ha): 50
- Wild mustard plant response rating (wild mustard; PREEMERGENCE, Rate 64 g/ha): 80
- Wild mustard plant response rating (wild mustard; PREEMERGENCE, Rate 125 g/ha): 70
- Wild oat (1) plant response rating (wild oat; POSTEMERGENCE, Rate 4 g/ha, stage (1) two to three leaves): 0
- Wild oat (2) plant response rating (wild oat; POSTEMERGENCE, Rate 4 g/ha, stage (2) approximately four leaves or initial tillering): 0
- Wild oat (1) plant response rating (wild oat; POSTEMERGENCE, Rate 8 g/ha, stage (1) two to three leaves): 0
- Wild oat (2) plant response rating (wild oat; POSTEMERGENCE, Rate 8 g/ha, stage (2) approximately four leaves or initial tillering): 0
- Wild oat (1) plant response rating (wild oat; POSTEMERGENCE, Rate 16 g/ha, stage (1) two to three leaves): 0
- Wild oat (2) plant response rating (wild oat; POSTEMERGENCE, Rate 16 g/ha, stage (2) approximately four leaves or initial tillering): 0
- Wild oat (1) plant response rating (wild oat; POSTEMERGENCE, Rate 32 g/ha, stage (1) two to three leaves): 25
- Wild oat (2) plant response rating (wild oat; POSTEMERGENCE, Rate 32 g/ha, stage (2) approximately four leaves or initial tillering): 15
- Wild oat (1) plant response rating (wild oat; POSTEMERGENCE, Rate 64 g/ha, stage (1) two to three leaves): 40
- Wild oat (2) plant response rating (wild oat; POSTEMERGENCE, Rate 64 g/ha, stage (2) approximately four leaves or initial tillering): 15
- Wild oat (1) plant response rating (wild oat; POSTEMERGENCE, Rate 125 g/ha, stage (1) two to three leaves): 45
- Wild oat (2) plant response rating (wild oat; POSTEMERGENCE, Rate 125 g/ha, stage (2) approximately four leaves or initial tillering): 20
- Wild oat (1) plant response rating (wild oat; POSTEMERGENCE, Rate 250 g/ha, stage (1) two to three leaves): 50
- Wild oat (2) plant response rating (wild oat; POSTEMERGENCE, Rate 250 g/ha, stage (2) approximately four leaves or initial tillering): 30
- Wild oat (1) plant response rating (wild oat; PREEMERGENCE, Rate 4 g/ha, Wild oat (1)): 0
- Wild oat (2) plant response rating (wild oat; PREEMERGENCE, Rate 4 g/ha, Wild oat (2)): 0
- Wild oat (1) plant response rating (wild oat; PREEMERGENCE, Rate 8 g/ha, Wild oat (1)): 0
- Wild oat (2) plant response rating (wild oat; PREEMERGENCE, Rate 8 g/ha, Wild oat (2)): 0
- Wild oat (1) plant response rating (wild oat; PREEMERGENCE, Rate 16 g/ha, Wild oat (1)): 0
- Wild oat (2) plant response rating (wild oat; PREEMERGENCE, Rate 16 g/ha, Wild oat (2)): 0
- Wild oat (1) plant response rating (wild oat; PREEMERGENCE, Rate 32 g/ha, Wild oat (1)): 0
- Wild oat (2) plant response rating (wild oat; PREEMERGENCE, Rate 32 g/ha, Wild oat (2)): 0
- Wild oat (1) plant response rating (wild oat; PREEMERGENCE, Rate 64 g/ha, Wild oat (1)): 10
- Wild oat (2) plant response rating (wild oat; PREEMERGENCE, Rate 64 g/ha, Wild oat (2)): 20
- Wild oat (1) plant response rating (wild oat; PREEMERGENCE, Rate 125 g/ha, Wild oat (1)): 20
- Wild oat (2) plant response rating (wild oat; PREEMERGENCE, Rate 125 g/ha, Wild oat (2)): 30
- Wild oat (1) plant response rating (wild oat; PREEMERGENCE, Rate 250 g/ha, Wild oat (1)): 30
- Wild oat (2) plant response rating (wild oat; PREEMERGENCE, Rate 250 g/ha, Wild oat (2)): 50
- Wild radish plant response rating (wild radish; POSTEMERGENCE, Rate 4 g/ha): 0
- Wild radish plant response rating (wild radish; POSTEMERGENCE, Rate 8 g/ha): 20
- Wild radish plant response rating (wild radish; POSTEMERGENCE, Rate 16 g/ha): 60
- Wild radish plant response rating (wild radish; POSTEMERGENCE, Rate 32 g/ha): 60
- Wild radish plant response rating (wild radish; POSTEMERGENCE, Rate 64 g/ha): 60
- Wild radish plant response rating (wild radish; POSTEMERGENCE, Rate 125 g/ha): 60
- Wild radish plant response rating (wild radish; POSTEMERGENCE, Rate 250 g/ha): 60
- Wild radish plant response rating (wild radish; PREEMERGENCE, Rate 4 g/ha): 0
- Wild radish plant response rating (wild radish; PREEMERGENCE, Rate 8 g/ha): 0
- Wild radish plant response rating (wild radish; PREEMERGENCE, Rate 16 g/ha): 0
- Wild radish plant response rating (wild radish; PREEMERGENCE, Rate 32 g/ha): 0
- Wild radish plant response rating (wild radish; PREEMERGENCE, Rate 64 g/ha): 40
- Wild radish plant response rating (wild radish; PREEMERGENCE, Rate 125 g/ha): 70
- Wild radish plant response rating (wild radish; PREEMERGENCE, Rate 250 g/ha): 100
